Assay results from PubChem BioAssay (NCI).
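Five concentrations, 48 hours, 96-well plates. GI50 is the concentration that inhibits growth by half. The concentration for full growth arrest is given as TGI.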

Columns and labels:
Assay in all cases: NCI tumour cell line growth inhibition, 48 h
CAKI-1 renal = test system: CAKI-1 renal
MALME-3M melanoma = test system: MALME-3M melanoma
NCI-H226 lung = test system: NCI-H226 lung
SK-MEL-28 melanoma = test system: SK-MEL-28 melanoma
SK-OV-3 ovarian = test system: SK-OV-3 ovarian
SK-MEL-2 melanoma = test system: SK-MEL-2 melanoma
SR leukemia = test system: SR leukemia
HCT-15 colon = test system: HCT-15 colon
SF-295 CNS = test system: SF-295 CNS
HT29 colon = test system: HT29 colon

## CCOC(=O)NC/C=C/CO
CAKI-1 renal
  TGI: > 100 µM
MALME-3M melanoma
  TGI: > 100 µM
NCI-H226 lung
  TGI: > 100 µM
SK-MEL-28 melanoma
  TGI: > 100 µM
SK-OV-3 ovarian
  TGI: > 100 µM
SK-MEL-2 melanoma
  TGI: > 100 µM
SR leukemia
  TGI: > 100 µM
HCT-15 colon
  TGI: > 100 µM

## COc1cccc(OC)c1/C=N\N1C(=O)c2ccccc2C1=O
CAKI-1 renal
  TGI: > 100 µM
MALME-3M melanoma
  TGI: > 100 µM
NCI-H226 lung
  TGI: > 100 µM
SK-MEL-28 melanoma
  TGI: > 100 µM
SF-295 CNS
  TGI: > 100 µM
SK-MEL-2 melanoma
  TGI: > 100 µM
SR leukemia
  TGI: 74.5 µM
HT29 colon
  TGI: > 100 µM
HCT-15 colon
  TGI: > 100 µM

## COc1cc(/C=C/C(=O)c2c(-c3ccc(Cl)cc3)nc3sc(C)nn23)cc(OC)c1OC
CAKI-1 renal
  GI50: 54 µM
  TGI: > 100 µM
MALME-3M melanoma
  GI50: 25.6 µM
  TGI: > 100 µM
NCI-H226 lung
  GI50: 23.7 µM
  TGI: > 100 µM
SK-MEL-28 melanoma
  GI50: > 100 µM
  TGI: > 100 µM
SK-OV-3 ovarian
  GI50: 66.6 µM
  TGI: > 100 µM
SF-295 CNS
  GI50: 30 µM
  TGI: > 100 µM
SR leukemia
  GI50: 4.9 µM
  TGI: > 100 µM
HT29 colon
  GI50: 77.7 µM
  TGI: > 100 µM
HCT-15 colon
  GI50: 15.8 µM
  TGI: > 100 µM

## COc1cc(COC(=O)NC(Cc2cccs2)C(=O)O)c([N+](=O)[O-])cc1OC (configuration not stated)
MALME-3M melanoma
  TGI: > 100 µM
NCI-H226 lung
  TGI: > 100 µM
SK-MEL-28 melanoma
  TGI: > 100 µM
SK-OV-3 ovarian
  TGI: > 100 µM
SF-295 CNS
  TGI: > 100 µM
SR leukemia
  TGI: > 100 µM
HT29 colon
  TGI: > 100 µM
HCT-15 colon
  TGI: > 100 µM

## O=C1COc2cc3c(cc2N1)SCC(=O)N3
CAKI-1 renal
  TGI: > 100 µM
MALME-3M melanoma
  TGI: > 100 µM
NCI-H226 lung
  TGI: > 100 µM
SK-MEL-28 melanoma
  TGI: > 100 µM
SK-OV-3 ovarian
  TGI: > 100 µM
SF-295 CNS
  TGI: > 100 µM
SK-MEL-2 melanoma
  TGI: > 100 µM
SR leukemia
  TGI: > 100 µM
HT29 colon
  TGI: > 100 µM

## CCNc1nc(-c2ccc(Cl)c(OC)c2)c(-c2ccnc(NCCNS(=O)(=O)c3ccc(Cl)cc3)n2)s1
MALME-3M melanoma
  GI50: 2.2 µM
  TGI: 7.39 µM
NCI-H226 lung
  GI50: 2.81 µM
  TGI: 14.3 µM
SK-MEL-28 melanoma
  GI50: 3.33 µM
  TGI: > 100 µM
SK-OV-3 ovarian
  GI50: 3.66 µM
  TGI: 55.1 µM
SF-295 CNS
  GI50: 1.89 µM
  TGI: 3.83 µM
SK-MEL-2 melanoma
  GI50: 2 µM
  TGI: 4.41 µM
SR leukemia
  GI50: 2.7 µM
  TGI: 7.51 µM
HT29 colon
  GI50: 2.92 µM
  TGI: 20.1 µM
HCT-15 colon
  GI50: 3.36 µM
  TGI: > 100 µM

## Cc1cc2c(=O)cc(-c3ccncc3)oc2c(C(=O)O)c1C
MALME-3M melanoma
  TGI: > 100 µM
NCI-H226 lung
  TGI: > 100 µM
SK-MEL-28 melanoma
  TGI: > 100 µM
SK-OV-3 ovarian
  TGI: > 100 µM
SF-295 CNS
  TGI: > 100 µM
SK-MEL-2 melanoma
  TGI: > 100 µM
SR leukemia
  TGI: > 100 µM
HT29 colon
  TGI: > 100 µM
HCT-15 colon
  TGI: > 100 µM

## N#Cc1c(N/N=C/c2c(Cl)cccc2Cl)nc(N)nc1N1CCCC1
CAKI-1 renal
  GI50: 1.29 µM
  TGI: > 100 µM
NCI-H226 lung
  GI50: 11.8 µM
  TGI: > 100 µM
SK-MEL-28 melanoma
  GI50: 16.4 µM
  TGI: > 100 µM
SK-OV-3 ovarian
  GI50: 5.12 µM
  TGI: > 100 µM
SF-295 CNS
  GI50: 1.02 µM
  TGI: > 100 µM
SK-MEL-2 melanoma
  GI50: 5.55 µM
  TGI: > 100 µM
SR leukemia
  GI50: 0.795 µM
  TGI: 3.03 µM
HT29 colon
  GI50: 1.96 µM
  TGI: > 100 µM
HCT-15 colon
  GI50: 0.645 µM
  TGI: 20 µM
